target: T1, HIV-integrase (Human immunodeficiency virus type 1 group M subtype B, UniProt P12497); assay: HIV-Integrase Inhibition Activity (SPA bead strand-transfer assay); format: biochemical; details: Table 1; read-out: Activity (HIV-integrase inhibition, IC50 class)
T1 construct: Recombinant integrase (0.26 ng) was incubated with the beads
In short: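 Strand-transfer read-out: CPM from P33-labelled target DNA (0.1 fmol) joined to bead-bound biotin substrate DNA (5 pmole), with EDTA stop at 10 mM final. Integrase (0.26 ng) prebound to streptavidin SPA beads 90 min, 37° C, and washed before adding inhibitor.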

| SMILES | IC50 |
| --- | --- |
| CC1(C)OCCn2c1nc(C(=O)NCc1cc(F)cc(C(F)(F)F)c1)c(O)c2=O [Example 237, Pyrimido[2,1-c][1,4]oxazine-2-carboxamide, N-[[3-fluoro-5-(trifluoromethyl)phenyl]methyl]-4,6,7,9-tetrahydro-3-hydroxy-9,9-dimethyl-4-oxo-] | 2 to 100 nM |
| CC1(C)OCCn2c1nc(C(=O)NCc1cccc(F)c1F)c(O)c2=O [Example 238, Pyrimido[2,1-c][1,4]oxazine-2-carboxamide, N-[(2,3-difluorophenyl)methyl]-4,6,7,9-tetrahydro-3-hydroxy-9,9-dimethyl-4-oxo-] | 2 to 100 nM |
| COc1ccc(CNC(=O)c2nc3n(c(=O)c2O)CCOC3(C)C)cc1Cl [Example 239, Pyrimido[2,1-c][1,4]oxazine-2-carboxamide, N-[(3-chloro-4-methoxyphenyl)methyl]-4,6,7,9-tetrahydro-3-hydroxy-9,9-dimethyl-4-oxo-] | 2 to 100 nM |
| Cc1ccc(CNC(=O)c2nc3n(c(=O)c2O)CCOC3(C)C)cc1 [Example 240, Pyrimido[2,1-c][1,4]oxazine-2-carboxamide, 4,6,7,9-tetrahydro-3-hydroxy-9,9-dimethyl-N-[(4-methylphenyl)methyl]-4-oxo-] | 2 to 100 nM |
| CC1(C)OCCn2c1nc(C(=O)NCc1ccc(F)c(C(F)(F)F)c1)c(O)c2=O [Example 241, Pyrimido[2,1-c][1,4]oxazine-2-carboxamide, N-[[4-fluoro-3-(trifluoromethyl)phenyl]methyl]-4,6,7,9-tetrahydro-3-hydroxy-9,9-dimethyl-4-oxo-] | 2 to 100 nM |
| COc1ccccc1CNC(=O)c1nc2n(c(=O)c1O)CCOC2(C)C [Example 242, Pyrimido[2,1-c][1,4]oxazine-2-carboxamide, 4,6,7,9-tetrahydro-3-hydroxy-N-[(2-methoxyphenyl)methyl]-9,9-dimethyl-4-oxo-] | 2 to 100 nM |
| CCOc1ccccc1CNC(=O)c1nc2n(c(=O)c1O)CCOC2(C)C [Example 243, Pyrimido[2,1-c][1,4]oxazine-2-carboxamide, N-[(2-ethoxyphenyl)methyl]-4,6,7,9-tetrahydro-3-hydroxy-9,9-dimethyl-4-oxo-] | 2 to 100 nM |
| COc1ccc(CNC(=O)c2nc3n(c(=O)c2O)CCOC3(C)C)cc1 [Example 244, Pyrimido[2,1-c][1,4]oxazine-2-carboxamide, 4,6,7,9-tetrahydro-3-hydroxy-N-[(4-methoxyphenyl)methyl]-9,9-dimethyl-4-oxo-] | 2 to 100 nM |
| COc1cc(CNC(=O)c2nc3n(c(=O)c2O)CCOC3(C)C)ccc1F [Example 245, Pyrimido[2,1-c][1,4]oxazine-2-carboxamide, N-[(4-fluoro-3-methoxyphenyl)methyl]-4,6,7,9-tetrahydro-3-hydroxy-9,9-dimethyl-4-oxo-] | 2 to 100 nM |
| CC1(C)OCCn2c1nc(C(=O)NCc1ccc(F)cc1C(F)(F)F)c(O)c2=O [Example 246, Pyrimido[2,1-c][1,4]oxazine-2-carboxamide, N-[[4-fluoro-2-(trifluoromethyl)phenyl]methyl]-4,6,7,9-tetrahydro-3-hydroxy-9,9-dimethyl-4-oxo-] | 2 to 100 nM |
| CCc1cc(CNC(=O)c2nc3n(c(=O)c2O)CCOC3(C)C)ccc1F [Example 247, Pyrimido[2,1-c][1,4]oxazine-2-carboxamide, N-[(3-ethyl-4-fluorophenyl)methyl]-4,6,7,9-tetrahydro-3-hydroxy-9,9-dimethyl-4-oxo-] | 2 to 100 nM |
| Cc1ccc(CNC(=O)c2nc3n(c(=O)c2O)CCOC3(C)C)cc1F [Example 248, Pyrimido[2,1-c][1,4]oxazine-2-carboxamide, N-[(3-fluoro-4-methylphenyl)methyl]-4,6,7,9-tetrahydro-3-hydroxy-9,9-dimethyl-4-oxo-] | 2 to 100 nM |
| CCOc1cccc(CNC(=O)c2nc3n(c(=O)c2O)CCOC3(C)C)c1 [Example 249, Pyrimido[2,1-c][1,4]oxazine-2-carboxamide, N-[(3-ethoxyphenyl)methyl]-4,6,7,9-tetrahydro-3-hydroxy-9,9-dimethyl-4-oxo-] | 2 to 100 nM |
| CC1(C)OCCn2c1nc(C(=O)NCc1ccc3c(c1)CCO3)c(O)c2=O [Example 250, Pyrimido[2,1-c][1,4]oxazine-2-carboxamide, N-[(2,3-dihydro-5-benzofuranyl)methyl]-4,6,7,9-tetrahydro-3-hydroxy-9,9-dimethyl-4-oxo-] | 2 to 100 nM |
| Cc1ccc(Cl)cc1CNC(=O)c1nc2n(c(=O)c1O)CCOC2(C)C [Example 251, Pyrimido[2,1-c][1,4]oxazine-2-carboxamide, N-[(5-chloro-2-methylphenyl)methyl]-4,6,7,9-tetrahydro-3-hydroxy-9,9-dimethyl-4-oxo-] | 2 to 100 nM |
| CC1(C)OCCn2c1nc(C(=O)NCc1cccc(-n3cccn3)c1)c(O)c2=O [Example 252, Pyrimido[2,1-c][1,4]oxazine-2-carboxamide, 4,6,7,9-tetrahydro-3-hydroxy-9,9-dimethyl-4-oxo-N-[[3-(1H-pyrazol-1-yl)phenyl]methyl]-] | 100 to 1000 nM |

| SMILES | IC50 |
| --- | --- |
| CC1(C)OCCn2c1nc(C(=O)NCc1ccc(N3CCOCC3)cc1)c(O)c2=O [Example 253, Pyrimido[2,1-c][1,4]oxazine-2-carboxamide, 4,6,7,9-tetrahydro-3-hydroxy-9,9-dimethyl-N-[[4-(4-morpholinyl)phenyl]methyl]-4-oxo-] | > 1000 nM |
| CC1(C)OCCn2c1nc(C(=O)NCc1ccccc1N1CCCCC1)c(O)c2=O [Example 254, Pyrimido[2,1-c][1,4]oxazine-2-carboxamide, 4,6,7,9-tetrahydro-3-hydroxy-9,9-dimethyl-4-oxo-N-[[2-(1-piperidinyl)phenyl]methyl]-] | 2 to 100 nM |
| CC1(C)OCCn2c1nc(C(=O)NCc1ccccc1N)c(O)c2=O [Example 255, Pyrimido[2,1-c][1,4]oxazine-2-carboxamide, N-[(2-aminophenyl)methyl]-4,6,7,9-tetrahydro-3-hydroxy-9,9-dimethyl-4-oxo-] | 2 to 100 nM |
| CC1(C)OCCn2c1nc(C(=O)NCc1ccc(N)cc1)c(O)c2=O [Example 256, Pyrimido[2,1-c][1,4]oxazine-2-carboxamide, N-[(4-aminophenyl)methyl]-4,6,7,9-tetrahydro-3-hydroxy-9,9-dimethyl-4-oxo-] | 100 to 1000 nM |
| CN(C)c1ccc(CNC(=O)c2nc3n(c(=O)c2O)CCOC3(C)C)cc1 [Example 257, Pyrimido[2,1-c][1,4]oxazine-2-carboxamide, N-[[4-(dimethylamino)phenyl]methyl]-4,6,7,9-tetrahydro-3-hydroxy-9,9-dimethyl-4-oxo-] | 2 to 100 nM |
| CC1(C)OCCn2c1nc(C(=O)NCc1ccccc1O)c(O)c2=O [Example 258, Pyrimido[2,1-c][1,4]oxazine-2-carboxamide, 4,6,7,9-tetrahydro-3-hydroxy-N-[(2-hydroxyphenyl)methyl]-9,9-dimethyl-4-oxo-] | 2 to 100 nM |
| CC1(C)OCCn2c1nc(C(=O)NCc1ccc(O)cc1)c(O)c2=O [Example 259, Pyrimido[2,1-c][1,4]oxazine-2-carboxamide, 4,6,7,9-tetrahydro-3-hydroxy-N-[(4-hydroxyphenyl)methyl]-9,9-dimethyl-4-oxo-] | 2 to 100 nM |
| CC1(C)OCCn2c1nc(C(=O)NCc1ccccc1N1CCOCC1)c(O)c2=O [Example 260, Pyrimido[2,1-c][1,4]oxazine-2-carboxamide, 4,6,7,9-tetrahydro-3-hydroxy-9,9-dimethyl-N-[[2-(4-morpholinyl)phenyl]methyl]-4-oxo-] | 2 to 100 nM |
| CC(C)(C)OC(=O)N1CCN(c2ccccc2CNC(=O)c2nc3n(c(=O)c2O)CCOC3(C)C)CC1 [Example 261, 1-piperazinecarboxylic acid, 4-[2-[[[(4,6,7,9-tetrahydro-3-hydroxy-9,9-dimethyl-4-oxopyrimido[2,1-c][1,4]oxazin-2-yl)carbonyl]amino]methyl]phenyl]-, 1,1-dimethylethyl ester] | 2 to 100 nM |
| CC(C)Oc1ccccc1CNC(=O)c1nc2n(c(=O)c1O)CCOC2(C)C [Example 262, Pyrimido[2,1-c][1,4]oxazine-2-carboxamide, 4,6,7,9-tetrahydro-3-hydroxy-9,9-dimethyl-N-[[2-(1-methylethoxy)phenyl]methyl]-4-oxo-] | 2 to 100 nM |
| CC(C)Oc1cccc(CNC(=O)c2nc3n(c(=O)c2O)CCOC3(C)C)c1 [Example 263, Pyrimido[2,1-c][1,4]oxazine-2-carboxamide, 4,6,7,9-tetrahydro-3-hydroxy-9,9-dimethyl-N-[[3-(1-methylethoxy)phenyl]methyl]-4-oxo-] | 2 to 100 nM |
| COC(=O)c1cccc(CNC(=O)c2nc3n(c(=O)c2O)CCOC3(C)C)c1 [Example 264, Benzoic acid, 3-[[[(4,6,7,9-tetrahydro-3-hydroxy-9,9-dimethyl-4-oxopyrimido[2,1-c][1,4]oxazin-2-yl)carbonyl]amino]methyl]-, methyl ester] | 2 to 100 nM |
| CC1(C)OCCn2c1nc(C(=O)NCc1ccc(C#N)cc1)c(O)c2=O [Example 265, Pyrimido[2,1-c][1,4]oxazine-2-carboxamide, N-[(4-cyanophenyl)methyl]-4,6,7,9-tetrahydro-3-hydroxy-9,9-dimethyl-4-oxo-] | 2 to 100 nM |
| CC1(C)OCCn2c1nc(C(=O)NCc1cccc(Cl)c1F)c(O)c2=O [Example 266, Pyrimido[2,1-c][1,4]oxazine-2-carboxamide, N-[(3-chloro-2-fluorophenyl)methyl]-4,6,7,9-tetrahydro-3-hydroxy-9,9-dimethyl-4-oxo-] | 2 to 100 nM |
| CC1(C)OCCn2c1nc(C(=O)NCc1cccc3c1OCCO3)c(O)c2=O [Example 267, Pyrimido[2,1-c][1,4]oxazine-2-carboxamide, N-[(2,3-dihydro-1,4-benzodioxin-5-yl)methyl]-4,6,7,9-tetrahydro-3-hydroxy-9,9-dimethyl-4-oxo-] | 2 to 100 nM |
| CC1(C)OCCn2c1nc(C(=O)NCc1cccc3c1OCCCO3)c(O)c2=O [Example 268, Pyrimido[2,1-c][1,4]oxazine-2-carboxamide, N-[(3,4-dihydro-2H-1,5-benzodioxepin-6-yl)methyl]-4,6,7,9-tetrahydro-3-hydroxy-9,9-dimethyl-4-oxo-] | 2 to 100 nM |

From patent US7491819B1 (priority 2004, dated 2009)
